In patent publication US6734139B1, “N-aryl-uracile-based herbicides” (priority 1999, dated 2004):
“And” between values parts separate entries of the source, which are not always exact repeats. Identical values can stand only once.

What was measured:
Assay type in all cases: in vivo
weeds = assay: Pre-emergence test (herbicidal action against weeds, Colby)
Text: (§1) The expected action for a given combination of two herbicides can be calculated as follows (cf. COLBY, S. R.: “Calculating synergistic and antagonistic responses of herbicide combinations”, Weeds 15, Pages 20-22, 1967):
(§2) If the actual damage exceeds the calculated value, the combination has a superadditive effect, that is to say a synergistic effect.
The theoretically expected activity for a given combination of three herbicides can likewise be found in the literature mentioned above.
Solvent: 2 to 3 parts by weight of acetone or N,N-dimethyl-formamide
Emulsifier: 1 part by weight of alkylaryl polyglycol ether
(§3) To produce a suitable preparation of active compound, 1 part by weight of active compound is mixed with the stated amount of solvent, the stated amount of emulsifier is added and the concentrate is diluted with water to the desired concentration. Formulated products are dissolved in water and then diluted with water to the desired concentration.
(§4) The solutions of the other mixing components (active compounds or safeners) are prepared analogously. The separately prepared solutions of the various mixing components are then combined and, if appropriate, additional substances (formulation auxiliaries, additives, etc.) are added and, if appropriate, water is added to prepare the desired dilution.
Seeds of the test plants are sown in standard soil. After 24 hours, the soil is sprayed with the preparation of active compound such that the particular amount of active compound desired in each case is applied per unit area. The concentration of active compound in the spray liquor is chosen such that the particular amount of active compound desired in each case is applied in 500 litres of water per hectare. The containers with the test plants are kept in a greenhouse at controlled temperature and controlled illumination until evaluation.
(§5) After three weeks, the degree of damage to the plants is rated in % damage in comparison to the development of the untreated control. The figures denote
(§6) 0%=no effect/no damage (like untreated control)

Alopecurus = assay: Pre-emergence test (herbicidal action, Colby): Alopecurus
Digitaria = assay: Pre-emergence test (herbicidal action, Colby): Digitaria
Echinochloa = assay: Pre-emergence test (herbicidal action, Colby): Echinochloa
Abutilon [1] = assay: Pre-emergence test (herbicidal action, Colby): Abutilon; details: for pest or weed control at 30 g/ha: 30 g of a.i./ha; for pest or weed control at 30 g/ha / pest or weed control at 60 g/ha: read-out: Abutilon; for pest or weed control at 60 g/ha: 60 g of a.i./ha; for pest or weed control at 125 g/ha: 125 g of a.i./ha
Polygonum [2] = assay: Pre-emergence test (herbicidal action, Colby): Polygonum
Ipomoea = assay: Pre-emergence test (herbicidal action, Colby): Ipomoea
Datura [3] = assay: Pre-emergence test (herbicidal action, Colby): Datura
Chenopodium [4] = assay: Pre-emergence test (herbicidal action, Colby): Chenopodium
Bromus = assay: Pre-emergence test (herbicidal action, Colby): Bromus
Galium [5] = assay: Pre-emergence test (herbicidal action, Colby): Galium
Veronica = assay: Post-emergence test (herbicidal action, Colby): Veronica
Text: as §1, §2, §3, §4, §5, §6

Solanum = assay: Post-emergence test (herbicidal action, Colby): Solanum
Text: as §1, §2, §3, §4, §5, §6

Amaranthus = assay: Post-emergence test (herbicidal action, Colby): Amaranthus
Galium [6] = assay: Post-emergence test (herbicidal action, Colby): Galium
Datura [7] = assay: Post-emergence test (herbicidal action, Colby): Datura
Abutilon [8] = assay: Post-emergence test (herbicidal action, Colby): Abutilon; details: 60 g of a.i./ha
Chenopodium [9] = assay: Post-emergence test (herbicidal action, Colby): Chenopodium; details: 60 g of a.i./ha
Matricaria [10] = assay: Post-emergence test (herbicidal action, Colby): Matricaria; details: 125 g of a.i./ha
Polygonum [11] = assay: Post-emergence test (herbicidal action, Colby): Polygonum; details: 125 g of a.i./ha
Setaria = assay: Pre-emergence test (herbicidal action, Colby): Setaria
Eriochloa = assay: Pre-emergence test (herbicidal action, Colby): Eriochloa
Cassia = assay: Pre-emergence test (herbicidal action, Colby): Cassia
Lolium = assay: Pre-emergence test (herbicidal action, Colby): Lolium
Matricaria [12] = assay: Pre-emergence test (herbicidal action, Colby): Matricaria; details: 125 g of a.i./ha
Stellaria = assay: Pre-emergence test (herbicidal action, Colby): Stellaria
Viola = assay: Pre-emergence test (herbicidal action, Colby): Viola; details: 125 g of a.i./ha

CSc1nnc(C(C)(C)C)c(=O)n1N [metribuzin, 4-amino-6-tert-butyl-3-methylthio-1,2,4-triazin-5(4H)-one]
Chenopodium (pre-emergence test) (weeds; Table 23, 30 g of a.i./ha): 30 | Lolium (pre-emergence test) (weeds; Table 23, 30 g of a.i./ha): 0 | Setaria (pre-emergence test) (weeds; Table 23, 30 g of a.i./ha): 20 | Eriochloa (pre-emergence test) (weeds; Table 23, 60 g of a.i./ha): 0 | Galium (pre-emergence test) (weeds; Table 23, 60 g of a.i./ha): 20 | Ipomoea (pre-emergence test) (weeds; Table 23, 60 g of a.i./ha): 0 | Setaria (pre-emergence test) (weeds; Table 23, 60 g of a.i./ha): 80 | Cassia (pre-emergence test) (weeds; Table A26, 60 g of a.i./ha): 80 | Echinochloa (pre-emergence test) (weeds; Table A26, 60 g of a.i./ha): 30 | Matricaria (pre-emergence test) (weeds; Table A26, 60 g of a.i./ha): 60 | Avena (pre-emergence test) (weeds; Table A26, 125 g of a.i./ha): 40 | Digitaria (pre-emergence test) (weeds; Table A26, 125 g of a.i./ha): 90 | Echinochloa (pre-emergence test) (weeds; Table A26, 125 g of a.i./ha): 80 | Lolium (pre-emergence test) (weeds; Table A26, 125 g of a.i./ha): 70 | Matricaria (pre-emergence test) (weeds; Table A26, 125 g of a.i./ha): 70 | Setaria (pre-emergence test) (weeds; Table A26, 125 g of a.i./ha): 80 | Alopecurus (Alopecurus; 30 g of a.i./ha): 0% | Digitaria (Digitaria; 30 g of a.i./ha): 30% | Digitaria (Digitaria; 60 g of a.i./ha): 80% | Echinochloa (Echinochloa; 60 g of a.i./ha): 0% | Echinochloa (Echinochloa; 125 g of a.i./ha): 80% | pest or weed control at 30 g/ha (Abutilon [1]): 80% | pest or weed control at 60 g/ha (Abutilon [1]): 90% | Polygonum (Polygonum [2]; 60 g of a.i./ha): 40% | Ipomoea (Ipomoea; 30 g of a.i./ha): 0% | Datura (Datura [3]; 30 g of a.i./ha): 20% | Datura (Datura [3]; 60 g of a.i./ha): 30% | Chenopodium (Chenopodium [4]; 60 g of a.i./ha): 50% | Bromus (Bromus; 30 g of a.i./ha): 0% | Galium (Galium [5]; 60 g of a.i./ha): 0%

Cc1nn(-c2cc(NS(C)(=O)=O)c(Cl)cc2Cl)c(=O)n1C(F)F [sulfentrazone, 2-(2,4-dichloro-5-methylsulphonylamino-phenyl)-4-difluoromethyl-5-methyl-2,4-dihydro-3H-1,2,4-triazol-3-one]
Veronica (Veronica; 60 g of a.i./ha): 0% | Veronica (Veronica; 125 g of a.i./ha): 20% | Solanum (Solanum; 60 g of a.i./ha): 0% | Solanum (Solanum; 125 g of a.i./ha): 0% | Amaranthus (Amaranthus; 60 g of a.i./ha): 90% | Galium (Galium [6]; 60 g of a.i./ha): 0% | Datura (Datura [7]; 60 g of a.i./ha): 0% | Datura (Datura [7]; 125 g of a.i./ha): 0% | Abutilon (Abutilon [8]): 0% | Chenopodium (Chenopodium [9]): 60% | Matricaria (Matricaria [10]): 0% | Polygonum (Polygonum [11]): 50%

CC(C)c1nn(C(=O)NC(C)(C)C)c(=O)n1N [amicarbazone, 4-amino-N-(1,1-dimethyl-ethyl)-4,5-dihydro-3-(1-methyl-ethyl)-5-oxo-1H-1,2,4-triazole-1-carboxamide]
Cassia (pre-emergence test) (weeds; Table A22, 60 g of a.i./ha): 80 | Datura (pre-emergence test) (weeds; Table A22, 125 g of a.i./ha): 50 | Polygonum (pre-emergence test) (weeds; Table A22, 125 g of a.i./ha): 90 | Alopecurus (Alopecurus; 60 g of a.i./ha): 20% | Digitaria (Digitaria; 30 g of a.i./ha): 20% | Digitaria (Digitaria; 60 g of a.i./ha): 60% | Echinochloa (Echinochloa; 60 g of a.i./ha): 0% | Setaria (Setaria; 30 g of a.i./ha): 20% | Setaria (Setaria; 60 g of a.i./ha): 20% and 30% | pest or weed control at 30 g/ha (Abutilon [1]): 20% | pest or weed control at 60 g/ha (Abutilon [1]): 99% | Polygonum (Polygonum [2]; 60 g of a.i./ha): 80% | Ipomoea (Ipomoea; 30 g of a.i./ha): 50% | Datura (Datura [3]; 30 g of a.i./ha): 0% | Datura (Datura [3]; 60 g of a.i./ha): 20% | Chenopodium (Chenopodium [4]; 30 g of a.i./ha): 50% | Eriochloa (Eriochloa; 30 g of a.i./ha): 30% | Eriochloa (Eriochloa; 60 g of a.i./ha): 70% | Cassia (Cassia; 30 g of a.i./ha): 70% | Lolium (Lolium; 30 g of a.i./ha): 0%

CC(C)N(C(=O)COc1nnc(C(F)(F)F)s1)c1ccc(F)cc1 [flufenacet, N-(4-fluoro-phenyl)-N-i-propyl-2-(5-trifluoromethyl-1,3,4-thiadiazol-2-yl-oxy)-acetamide]
Chenopodium (pre-emergence test) (weeds; Table 23, 30 g of a.i./ha): 30 | Ipomoea (pre-emergence test) (weeds; Table 23, 30 g of a.i./ha): 50 | Lolium (pre-emergence test) (weeds; Table 23, 30 g of a.i./ha): 70 | Setaria (pre-emergence test) (weeds; Table 23, 30 g of a.i./ha): 70 | Chenopodium (pre-emergence test) (weeds; Table 23, 60 g of a.i./ha): 50 | Eriochloa (pre-emergence test) (weeds; Table 23, 60 g of a.i./ha): 90 | Galium (pre-emergence test) (weeds; Table 23, 60 g of a.i./ha): 40 | Setaria (pre-emergence test) (weeds; Table 23, 60 g of a.i./ha): 90 | Chenopodium (pre-emergence test) (weeds; Table A21, 60 g of a.i./ha): 50 | Ipomoea (pre-emergence test) (weeds; Table A21, 60 g of a.i./ha): 70 | Polygonum (pre-emergence test) (weeds; Table A21, 60 g of a.i./ha): 0 | Datura (pre-emergence test) (weeds; Table A21, 125 g of a.i./ha): 50 | Ipomoea (pre-emergence test) (weeds; Table A21, 125 g of a.i./ha): 80 | Polygonum (pre-emergence test) (weeds; Table A21, 125 g of a.i./ha): 30 | Alopecurus (Alopecurus; 60 g of a.i./ha): 70% | Digitaria (Digitaria; 30 g of a.i./ha): 80% | Digitaria (Digitaria; 60 g of a.i./ha): 80% | Echinochloa (Echinochloa; 60 g of a.i./ha): 90% | Setaria (Setaria; 30 g of a.i./ha): 70% | Setaria (Setaria; 60 g of a.i./ha): 80% and 90% | pest or weed control at 30 g/ha (Abutilon [1]): 20% | pest or weed control at 60 g/ha (Abutilon [1]): 20% | pest or weed control at 125 g/ha (Abutilon [1]): 20% | Matricaria (Matricaria [12]): 60% | Polygonum (Polygonum [2]; 30 g of a.i./ha): 20% | Polygonum (Polygonum [2]; 60 g of a.i./ha): 30% | Stellaria (Stellaria; 60 g of a.i./ha): 50% | Stellaria (Stellaria; 125 g of a.i./ha): 70% | Ipomoea (Ipomoea; 30 g of a.i./ha): 30% | Ipomoea (Ipomoea; 60 g of a.i./ha): 30% | Ipomoea (Ipomoea; 125 g of a.i./ha): 30% | Datura (Datura [3]; 30 g of a.i./ha): 20% | Datura (Datura [3]; 60 g of a.i./ha): 40% | Chenopodium (Chenopodium [4]; 30 g of a.i./ha): 30% | Chenopodium (Chenopodium [4]; 60 g of a.i./ha): 50% | Eriochloa (Eriochloa; 30 g of a.i./ha): 80% | Cassia (Cassia; 60 g of a.i./ha): 60% | Bromus (Bromus; 60 g of a.i./ha): 30% | Galium (Galium [5]; 30 g of a.i./ha): 30% | Lolium (Lolium; 60 g of a.i./ha): 80%

O=C(O)COc1ccc(Cl)cc1Cl [2,4-D, 2,4-dichloro-phenoxyacetic acid]
Amaranthus (Amaranthus; 86 g of a.i./ha): 30% | Galium (Galium [6]; 86 g of a.i./ha): 0%

CCc1cccc(C)c1N(C(=O)CCl)[C@@H](C)COC [metolachlor, (S)-2-chloro-N-(2-ethyl-6-methyl-phenyl)-N-(2-methoxy-1-methylethyl)-acetamide]
Digitaria (Digitaria; 250 g of a.i./ha): 90% | pest or weed control at 125 g/ha (Abutilon [1]): 30% | pest or weed control at 250 g/ha (Abutilon [1]; 250 g of a.i./ha): 30% | Stellaria (Stellaria; 125 g of a.i./ha): 30% | Stellaria (Stellaria; 250 g of a.i./ha): 80% | Ipomoea (Ipomoea; 250 g of a.i./ha): 30% | Viola (Viola): 50%
